Data on 18 compounds can be found in US9512107B2, “Therapeutically active compositions and their methods of use” (Agios Pharmaceuticals, Inc., priority 2012, dated 2016).

Residue numbers refer to the chain shown, from its start.

Test [1] relates to U87MG pLVX-IDH2 R140Q-neo cells. Nature of the test: U87MG pLVX-IDH2 R140Q-neo cell based assay, 2-HG in media by LC-MS at 48 hours. Conditions: Homo sapiens, U-87 MG. The gist of the method:
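2-HG secreted into the medium was measured by LC-MS after 48 h of compound treatment (0.2% DMSO final) of U87MG pLVX-IDH2 R140Q-neo cells in DMEM/10% FBS. The same wells were assayed at 72 h by CellTiter-Glo luminescence for effects on growth.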

The next test addresses T1, IDH2 R140Q (Homo sapiens, UniProt P48735, R140Q).
T1 sequence (P48735 40-452 R140Q): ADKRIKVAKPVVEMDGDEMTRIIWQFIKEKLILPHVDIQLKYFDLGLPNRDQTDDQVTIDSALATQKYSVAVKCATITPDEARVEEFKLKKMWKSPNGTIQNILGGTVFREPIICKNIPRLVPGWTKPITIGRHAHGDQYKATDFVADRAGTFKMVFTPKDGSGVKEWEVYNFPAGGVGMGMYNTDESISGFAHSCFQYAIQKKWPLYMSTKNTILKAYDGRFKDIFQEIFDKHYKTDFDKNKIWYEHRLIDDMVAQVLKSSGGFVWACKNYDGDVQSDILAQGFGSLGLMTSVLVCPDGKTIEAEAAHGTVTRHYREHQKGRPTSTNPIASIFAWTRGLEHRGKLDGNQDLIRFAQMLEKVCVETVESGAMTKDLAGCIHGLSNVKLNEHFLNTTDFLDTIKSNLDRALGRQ
Nature of the test: IDH2 R140Q enzymatic assay (cofactor depletion, similar format). It is filed as biochemical. The following applies: read-out: Enz R140Q.

In the next test the target is T2, IDH2 R172K (Homo sapiens, UniProt P48735, R172K).
T2 sequence (P48735 40-452 R172K): T1 sequence (P48735 40-452 R140Q) with Q101R, R133K
Nature of the test: IDH2 R172K enzymatic assay (NADPH cofactor depletion, diaphorase/resazurin readout). It is filed as biochemical. The following applies: read-out: Enz R172K. Here is the method:
Compounds are assayed for IDH2 R172K inhibitory activity through a cofactor depletion assay. […] The reaction is terminated by the addition of a second enzyme, diaphorase, and a corresponding substrate, resazurin. Diaphorase reduces resazurin to the highly fluorescent resorufin with the concomitant oxidation of NADPH to NADP, both halting the IDH2 reaction by depleting the available cofactor pool and facilitating quantitation of the amount of cofactor remaining after a specific time period through quantitative production of an easily detected fluorophore.
The test compound is then incubated for one hour at room temperature with the enzyme; before starting the IDH2 reaction with the addition of 10 μl of substrate mix containing 50 μM NADPH and 6.3 mM α-KG in the buffer described above. After a further one hour of incubation at room temperature, the reaction is halted and the remaining NADPH measured through conversion of resazurin to resorufin by the addition of 25 μl Stop Mix (36 μg/ml diaphorase enzyme and 60 μM resazurin; in buffer).
On the technique in general: Resazurin is reduced to fluorescent resorufin, in cell work by metabolically active cells.

For `CC(C)Nc1nc(Nc2ccccc2)nc(-c2ccccc2)n1` [Compound 100], the IC50 (in test [1]; at IDH2 R140Q; at IDH2 R172K) was less than 100 nM in each case.

In the case of `CC(C)Nc1nc(Cc2ccccc2)nc(Nc2ccccc2)n1` [Compound 103], the results for the IC50 (in test [1]; on IDH2 R140Q; on IDH2 R172K) were 1000 to 10000 nM, 100 to 1000 nM and 1000 to 10000 nM, respectively.

Consider `CC(C)Nc1nc(Nc2ccccc2)nc(-c2ccccc2NS(C)(=O)=O)n1` [Compound 109], for which the IC50 in test [1] fell in the range of 1000 to 10000 nM; at IDH2 R140Q, 100 to 1000 nM; at IDH2 R172K, 1000 to 10000 nM.

Turning to `c1ccc(Nc2nc(NC3CC3)nc(-c3ccccc3)n2)cc1` [Compound 110], the results for the IC50 (in test [1]; on IDH2 R140Q; at IDH2 R172K) were less than 100 nM, less than 100 nM and 100 to 1000 nM, respectively.

In the case of `c1ccc(Nc2nc(NCC3CC3)nc(-c3ccccc3)n2)cc1` [Compound 111], the IC50 (in test [1]; at IDH2 R140Q; on IDH2 R172K) was less than 100 nM throughout.

Turning to `CC(C)(C)Nc1nc(Nc2ccccc2)nc(-c2ccccc2)n1` [Compound 112], the IC50 in test [1] was 100 to 1000 nM; at IDH2 R140Q, less than 100 nM; on IDH2 R172K, 100 to 1000 nM.

As for `c1ccc(Nc2nc(NC3CCCCC3)nc(-c3ccccc3)n2)cc1` [Compound 113], the IC50 in test [1] is less than 100 nM; at IDH2 R140Q, less than 100 nM; on IDH2 R172K, 100 to 1000 nM.

On to `CC(C)Nc1nc(Nc2ccccc2)nc(-c2cccnc2)n1` [Compound 114], for which the IC50 in test [1] lay in the range of 1000 to 10000 nM; at IDH2 R140Q, 100 to 1000 nM; on IDH2 R172K, 1000 to 10000 nM.

As for `COc1cccc(-c2nc(Nc3ccccc3)nc(NC(C)C)n2)c1` [Compound 115], the IC50 in test [1] is 100 to 1000 nM; at IDH2 R140Q it was less than 100 nM; at IDH2 R172K, 100 to 1000 nM.

On to `CC(C)Nc1nc(Nc2ccccc2)nc(-c2ccc(F)cc2F)n1` [Compound 118], for which the IC50 is 100 to 1000 nM in test [1], less than 100 nM on IDH2 R140Q and 100 to 1000 nM at IDH2 R172K.

For `CC(C)Nc1nc(Nc2ccccc2)nc(-c2ccnn2C)n1` [Compound 119], the values for the IC50 (in test [1]; on IDH2 R140Q; on IDH2 R172K) were 1000 to 10000 nM, 100 to 1000 nM and more than 10000 nM, respectively.

With `COc1ccccc1-c1nc(Nc2ccccc2)nc(NC(C)C)n1` [Compound 120], the values for the IC50 (in test [1]; at IDH2 R140Q; at IDH2 R172K) were less than 100 nM, less than 100 nM and 100 to 1000 nM, respectively.

Consider `CC(C)Nc1nc(Nc2ccccc2)nc(-c2ccccc2Cl)n1` [Compound 121], for which the IC50 (in test [1]; on IDH2 R140Q; at IDH2 R172K) was less than 100 nM each time.

As for `CC(C)Nc1nc(Nc2ccccc2)nc(-c2ccc(Cl)cc2)n1` [Compound 122], the values for the IC50 (in test [1]; on IDH2 R140Q; at IDH2 R172K) were 1000 to 10000 nM, 100 to 1000 nM and 1000 to 10000 nM, respectively.

Consider `COc1cc(Cl)cc(-c2nc(Nc3cc(F)cc(F)c3)nc(NC(C)C)n2)n1` [Compound 486, 6-(4-chloro-6-methoxypyridin-2-yl)-N^2-(3,5-difluorophenyl)-N^4-isopropyl-1,3,5-triazine-2,4-diamine], for which the IC50 (in test [1]; at IDH2 R172K) was 100 to 1000 nM in each case.

With `COc1cc(F)cc(-c2nc(Nc3ccnc(C(F)(F)F)c3)nc(NC(C)C)n2)c1` [Compound 662, 6-(3-fluoro-5-methoxyphenyl)-N2-isopropyl-N4-(2-(trifluoromethyl)pyridin-4-yl)-1,3,5-triazine-2,4-diamine], the IC50 in test [1] is 100 to 1000 nM; at IDH2 R172K, 1000 to 10000 nM.

Take `CC(C)Nc1nc(Nc2ccnc(C(F)(F)F)c2)nc(-c2cccc(C(C)O)c2)n1` (centres unmarked) [Compound 663, 1-(3-(4-(isopropylamino)-6-((2-(trifluoromethyl)pyridin-4-yl)amino)-1,3,5-triazin-2-yl)phenyl)ethanol]: the IC50 (in test [1]; at IDH2 R172K) was less than 100 nM each time.

Turning to `CC(C)Nc1nc(Nc2ccnc(C(F)(F)F)c2)nc(-c2cc(O)cc(CO)c2)n1` [Compound 665, 3-(hydroxymethyl)-5-(4-(isopropylamino)-6-((2-(trifluoromethyl)pyridin-4-yl)amino)-1,3,5-triazin-2-yl)phenol], the IC50 (in test [1]; at IDH2 R172K) was less than 100 nM throughout.
